In US10357577B2, “Bacterial nitroreductase enzymes and methods relating thereto” (AUCKLAND UNISERVICES LIMITED, priority 2010, dated 2019):
Where “and” joins values, the source holds several entries; their conditions need not be identical. Equal values may be shown once. Entries after “also recorded” stand apart in the source; their conditions may differ.

Tests used:
[1] = system: nitroreductase NfsA-expressing HCT116 'activator' cells; experiment: MCL (multicellular layer) bystander experiment, NfsA-dependent activation; type: cell-based, human; settings: for bystander property (in words): MCL of NTR-expressing and parental HCT116 cells; for estimated bystander effect efficiency (BEE) / calculated bystander effect efficiency (BEE): hyperoxic (95% O2) MCLs; for estimated bystander effect efficiency (BEE): at concentrations achievable in α-MEM+10% FBS, activator fraction differs per experiment; for calculated bystander effect efficiency (BEE): HCT116-WT targets mixed with NfsA activators (activator fraction differs per experiment)
Procedure: Displacement of the Target cell survival curve to the left (T to Tc) is indicative of the presence of a cytotoxic metabolite(s) able to diffusible out of the sensitive activator (A) cell population. The prodrug concentrations for 10% survival (C10) of target cells (wild-type cells) grown without activators (T), targets in co-culture (TC) and activators (nfsA-expressing cells) in co-culture (AC) were determined by interpolation. BEE-Bystander effect efficiency calculates the drugs bystander effect: ((Log C10T−Log C10TC)/(Log C10T−Log C10AC)).
The prodrug concentrations for 10% survival (C10) of target cells (wild-type cells) grown without activators (T), and targets in co-culture (TC) and activators (NTR-expressing cells) in co-culture (AC) can be determined. The bystander effect of a test prodrug is measured by the bystander effect efficiency which can be calculated using the algorithm ((Log C10T−Log C10TC)/(Log C10T−Log C10AC)).
Millicell-CM membrane inserts (Millipore) were coated in calf-skin collagen type III (Sigma-Aldrich) to facilitate cell attachment. […] After exposure, inserts were disaggregated (0.07% trypsin, 10 min, 37° C., followed by 100 μg/ml DNAase I (Sigma-Aldrich). Cells were counted, resuspended and plated in P60 dishes to determine clonogenic survival. To discriminate clonogenic activator (NTR+) from target (NTR−) colonies cells were plated in non-selective medium (total cells) and medium containing 1 μM puromycin (activator cells). Colonies were grown in a 37° C. 5% CO2 incubator for 10 days before staining with methylene blue (2 g/liter in 50% v/v aqueous ethanol). Colonies containing >50 cells were counted as clonogenic survivors. Surviving fractions for each population was calculated as the plating efficiency for drug-treated MCLs/untreated controls. The drug concentrations for 10% survival (C10) of target cells grown without activators (T), targets in co-culture (Tc) and activators in co-culture (Ac) was determined by interpolation.

[2] = molecular target: T1, NfsB(Ec) (Escherichia coli, UniProt P38489); experiment: Growth Inhibition assay, NTR over-expressing E. coli SOS-R2; type: cell-based; settings: elevated substrate concentrations (400 μM F-MISO, 600 μM HX4)
T1 construct: expressed in transfected cells; host or cells: E. coli SOS-R2 (endogenous nfsA, nfsB, nemA and azoR deleted) carrying pUCX::ntr
Procedure: FIG. 34 (B) illustrates the metabolism of F-MISO by members of the 58 NTR over-expression library as measured by Growth Inhibition assay as described for FIG. 34A except that cells were challenged with 400 μM F-MISO.
FIG. 35 (B) illustrates the metabolism of HX4 by members of the 58 NTR over-expression library as measured by Growth Inhibition assay as described for FIG. 35A except that cells were challenged with 600 μM HX4.
Individual microtiter plate wells containing 200 μl LB+amp, 0.4% glucose were inoculated with SOS-R2 pUCX::ntr strains and incubated overnight at 30° C., 200 rpm. Ten μl of the overnight culture were used to inoculate 190 μl of fresh assay media (LB+amp, 0.05 mM IPTG, 0.2% glucose) and incubated at 30° C., 200 rpm for 3 h. The 200 μl culture was split into 100 μl duplicates which were supplemented with either 100 μl challenge media (assay media+250 uM EF5+2% DMSO) or 100 μl control media (assay media+2% DMSO). Initial OD600 readings were recorded and then plates incubated at 30° C., 200 rpm for 4 h after which final OD600 readings were taken and used to calculate strains respective growth inhibition in EF5 presence.

[3] = system: HCT116 cells expressing E. coli NfsA; type: cell-based, human; settings: low cell density proliferation assay
Procedure: (§1) FIGS. 10 (B) and 10 (C) illustrates the results of evaluation of 2-nitroimidazole clinical imaging candidates with E. coli and non-E. coli NTRs. Stably-expressing cells were treated with varying concentration of 2-nitroimidazole prodrugs diluted in αMEM+5% FCS+P/S. Cells were exposed to prodrug for 18 hrs, washed and left to regrow for 5 days. IC50 was determined as the concentration of prodrug required to inhibit cell growth by 50% of untreated controls. IC50 values are mean for ≥2 independent experiments. WT:NTR ratio-ratio of IC50 means from WT cells versus NTR-expressing cell lines.
as §1, with “FIG. 21” for “FIGS. 10 (B) and 10 (C)”, “antiproliferative activity (IC50 value)” for “the results”, “prodrug” for “evaluation of 2-nitroimidazole clinical imaging”, “nitroreductases.” for “NTRs.”, “prodrug” for “2-nitroimidazole prodrugs”, “ratio-interexperimental ratio” for “ratio-ratio”
(§2) Isolated NTR gene sequences were subject to PCR and introduced in the bicistronic plasmid F579 via Gateway cloning (Invitrogen) as described by Prosser et al. (2010, Biochem Pharmacol, 79, 678-687). Stably transfected cell lines were created by transfection of the relevant plasmid using FuGENE 6 Transfection Reagent (Roche). Transfected cell populations were maintained by passage in puromycin
(§3) Cells were passaged in alpha-Minimal Essential Media, (αMEM; Gibco) supplemented with 5% FBS, (GIBCO NZ) without antibiotics. Cell were passaged for <3 months from frozen stocks and confirmed Mycoplasma free (PCR-ELISA; Roche Diagnostics). Cells were aliquoted into the 96-well plate (100 μL/well) and cells were left to attach (≥4 hrs). […] Plates were read on an ELx 808 Absorbance Microplate Reader (Bio-Tek Instruments). Absorbance was measured at 490 nm and 450 nm (final absorbance 490-450). […]

[4] = system: HCT116 cells expressing E. coli NfsB; experiment: Monolayer antiproliferative (IC50) assay, NTR-expressing HCT116; type: cell-based, human; settings: low cell density proliferation assay
Procedure: as §1
as §1, with “FIG. 21” for “FIGS. 10 (B) and 10 (C)”, “antiproliferative activity (IC50 value)” for “the results”, “prodrug” for “evaluation of 2-nitroimidazole clinical imaging”, “nitroreductases.” for “NTRs.”, “prodrug” for “2-nitroimidazole prodrugs”, “ratio-interexperimental ratio” for “ratio-ratio”
as §2, §3

[5] = system: HCT116-WT (parental) 'target' cells; experiment: MCL (multicellular layer) bystander experiment, target cells; type: cell-based, human
Text: FIG. 22 illustrates NfsA-dependent activation of TH-302 in an MCL bystander experiment. It includes a representative bystander efficiency graph. TH-302 dose-response curves for hyperoxic (95% O2) multicellular layers (MCLs) of HCT116-WT (parental) ‘target’ cells in the absence (T) and presence (Tc) of nitroreductase NfsA-expressing HCT116 ‘activator’ cells (A). MCLs are composed of ‘targets only’ (T) or as intimate mixtures of 29% (±4%) NfsA activators (A) and 71% targets (Tc). Displacement of the Target cell survival curve to the left (T to Tc) is indicative of the presence of a cytotoxic metabolite(s) able to diffusible out of the sensitive activator (A) cell population. The prodrug concentrations for 10% survival (C10) of target cells (wild-type cells) grown without activators (T), targets in co-culture (TC) and activators (nfsA-expressing cells) in co-culture (AC) were determined by interpolation. BEE-Bystander effect efficiency calculates the drugs bystander effect: ((Log C10T−Log C10TC)/(Log C10T−Log C10AC)). The calculated bystander effect efficiency is 43.4%.
Bystander effects can be quantified according to methods described in Wilson et al, 2002, Cancer Res. 62:1425-1432, by employing a 3D multicellular layer (MCL) composed of a minority (1%) of NTR-expressing ‘activator’ cells, mixed with a majority (99%) of parental (wild-type) ‘target’ cells. The prodrug concentrations for 10% survival (C10) of target cells (wild-type cells) grown without activators (T), and targets in co-culture (TC) and activators (NTR-expressing cells) in co-culture (AC) can be determined. The bystander effect of a test prodrug is measured by the bystander effect efficiency which can be calculated using the algorithm ((Log C10T−Log C10TC)/(Log C10T−Log C10AC)). […]
Millicell-CM membrane inserts (Millipore) were coated in calf-skin collagen type III (Sigma-Aldrich) to facilitate cell attachment. […] Surviving fractions for each population was calculated as the plating efficiency for drug-treated MCLs/untreated controls. […]

T1 sequence (P38489 whole entry): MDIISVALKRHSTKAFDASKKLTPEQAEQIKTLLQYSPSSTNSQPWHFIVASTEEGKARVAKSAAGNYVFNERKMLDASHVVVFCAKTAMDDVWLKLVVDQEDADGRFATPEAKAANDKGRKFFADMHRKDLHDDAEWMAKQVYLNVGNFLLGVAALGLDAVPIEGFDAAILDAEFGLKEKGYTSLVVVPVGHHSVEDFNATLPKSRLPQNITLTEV

Structure (SMILES)	bystander property (in words) [1]	estimated bystander effect efficiency (BEE) [1] [%]	further results
O=C(Cn1ccnc1[N+](=O)[O-])NCCO [Etanidazole, N-(2-hydroxyethyl)-2-(2-nitro-1H-imidazol-1-yl)acetamide]	zero bystander property	0	–
O=[N+]([O-])c1nccn1Cc1cn(C(CO)CF)nn1 (stereo not shown) [HX4, 3-fluoro-2-(4-((2-nitro-1H-imidazol-1-yl)methyl)-1H-1,2,3-triazol-1-yl)propan-1-ol]	–	–	activity with 2-NI substrate (in words) [2]: substantial activity
COCC(O)Cn1ccnc1[N+](=O)[O-] (stereo not shown) [Misonidazole, 1-methoxy-3-(2-nitro-1H-imidazol-1-yl)propan-2-ol]	zero bystander property	0	–
O=C1CN(/N=C/c2ccc([N+](=O)[O-])o2)C(=O)N1 [Nitrofurantoin, (E)-1-(((5-nitrofuran-2-yl)methylene)amino)imidazolidine-2,4-dione]	zero bystander property	–	calculated bystander effect efficiency (BEE) [1]: 0%
CS(=O)(=O)OCCN(CCBr)c1c(C(=O)NCCO)cc([N+](=O)[O-])cc1[N+](=O)[O-] [PR-104A, 2-((2-bromoethyl)(2-((2-hydroxyethyl)carbamoyl)-4,6-dinitrophenyl)amino)ethyl methanesulfonate]	marked bystander property	89	prodrug activation (in words) [3]: significant activation; prodrug activation (in words) [4]: significant activation
O=[N+]([O-])c1nccn1CC(O)CNCCBr (stereo not shown) [RB6145]	lack any measurable bystander effect	–	–
O=[N+]([O-])c1nccn1CC(O)CN1CC1 (stereo not shown) [RSU-1069, 1-(aziridin-1-yl)-3-(2-nitro-1H-imidazol-1-yl)propan-2-ol]	lack any measurable bystander effect	–	–
CN(CCO)C(=O)c1cc([N+](=O)[O-])cc([N+](=O)[O-])c1N(CCBr)CCBr [SN31609, 2-(bis(2-bromoethyl)amino)-N-(2-hydroxyethyl)-N-methyl-3,5-dinitrobenzamide]	–	–	prodrug activation (in words) [3]: significant activation; prodrug activation (in words) [4]: significant activation
Cn1c(COP(=O)(NCCBr)NCCBr)cnc1[N+](=O)[O-] [TH-302, N,N′-bis(2-bromoethyl)-(1-methyl-2-nitro-1H-imidazol-5-yl)methyl phosphorodiamidic acid ester]	–	–	calculated bystander effect efficiency (BEE) [1]: 43.4% and 43%; sterilisation of the nfsA-expressing cells in the MCL model ([1]; incubation with 90 nM TH-302): Greater than 90%; fold less sensitive, NfsA negative cells versus nfsA-expressing cells ([5]; MCL model): 210 fold; C10 (concentration for 10% survival) of NfsA negative cells in co-culture ([5]; MCL, targets in co-culture with activators): 1.86 µM; C10 (concentration for 10% survival) of NfsA negative cells ([5]; MCL, targets without activators): 18.9 µM
CCS(=O)(=O)CCn1c([N+](=O)[O-])cnc1C [Tinidazole, 1-(2-(ethylsulfonyl)ethyl)-2-methyl-5-nitro-1H-imidazole]	lack any measurable bystander effect; also recorded: zero bystander property	0	–
